Experimental data taken from US7288622B1, “Composition for treatment of burns and wounds” (Issar Pharmaceuticals Pvt Ltd, priority 2006, dated 2007).
Converted amounts (≈) assume the structure as drawn. Residues, ends and D or L forms follow the SMILES beside them.

Tests used:
physchem = assay type: physicochemical
Description: The molecular weight of the peptide is 2776 and 3388 with counter ions. The peptide is water-soluble and forms an alpha helical secondary protein structure.

rats = assay: Acute toxicity test of the peptide in rats; assay type: in vivo; details: 8.95 mg/kg intraperitoneal, single dose, inspected at 3rd, 6th, 12th and 24th hour, animals active on 14th day
Protocol: (§1) The safety of the peptide was tested with mice and rats at age of 4 to 6 weeks. The tests were conducted with five female mice and rats and five male mice and rats. The dose of the peptide injected intraperitoneal was 8.95 mg/kg for rats and 12.53 mg/kg for mice. The acute toxicity test was conducted at 3rd, 6th, 12th and 24th hour after exposure to the peptide. […] The animals were active still on 14th day.

mice = assay: Acute toxicity test of the peptide in mice; assay type: in vivo; details: 12.53 mg/kg intraperitoneal, single dose, inspected at 3rd, 6th, 12th and 24th hour, animals active on 14th day
Protocol: as §1

In the case of `C[C@H](NC(=O)[C@H](Cc1ccccc1)NC(=O)[C@H](C)NC(=O)[C@H](Cc1ccccc1)NC(=O)[C@H](CCCCN)NC(=O)[C@H](C)NC(=O)[C@H](Cc1ccccc1)NC(=O)[C@H](CCCCN)NC(=O)[C@H](CCCCN)NC(=O)[C@H](C)NC(=O)[C@H](Cc1ccccc1)NC(=O)[C@H](CCCCN)NC(=O)[C@H](CCCCN)NC(=O)[C@H](Cc1ccccc1)NC(=O)[C@H](CCCCN)NC(=O)[C@H](CCCCN)NC(=O)[C@H](C)NC(=O)[C@H](Cc1ccccc1)NC(=O)[C@H](CCCCN)NC(=O)[C@H](CCCCN)NC(=O)[C@H](C)NC(=O)[C@@H](N)Cc1ccccc1)C(=O)N[C@@H](Cc1ccccc1)C(=O)O` [peptide] (H-FAKKFAKKFKKFAKKFAKFAFAF-OH; N-terminus and C-terminus assumed), the “Solubility in 10% DMSO in saline” value (physchem) is reported as 32.25 mM (≈ 89.5 mg/mL), the solubility (physchem; saline or isotonic) is reported as 31.6 mM (≈ 87.6 mg/mL) and the Acute lethality (rats) is reported as “No lethality was found”. The Acute lethality (mice) was “No lethality was found”.
